From publication PMC8203827, “The Stand-Alone PilZ-Domain Protein MotL Specifically Regulates the Activity of the Secondary Lateral Flagellar System in Shewanella putrefaciens” (Frontiers in Microbiology, 2021)

Molecular target: T1, MotL (sfGFP-MotL) (Shewanella putrefaciens, UniProt A0ABX8XB40)
T1 construct: gene K3G22_17145
T1 sequence (A0ABX8XB40 1-144): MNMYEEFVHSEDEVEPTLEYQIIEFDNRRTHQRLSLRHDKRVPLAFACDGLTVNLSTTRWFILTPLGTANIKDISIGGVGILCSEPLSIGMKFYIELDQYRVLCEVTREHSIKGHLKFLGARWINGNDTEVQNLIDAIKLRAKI
Test: radioligand spot binding on nitrocellulose, phosphorimaging
Details: labelled compound ([…]); […] protein, […] Tris-HCl, […] NaCl, […] MgCl2, […] min, RT; protein purified from strain co-producing phosphodiesterase PdeH

Nc1nc2c(ncn2[C@@H]2O[C@@H]3COP(=O)(O)O[C@H]4[C@@H](O)[C@H](n5cnc6c(=O)[nH]c(N)nc65)O[C@@H]4COP(=O)(O)O[C@H]3[C@H]2O)c(=O)[nH]1 [c-di-GMP]
radioligand spot binding on nitrocellulose, phosphorimaging: Produced under these conditions, robust c-di-GMP binding to MotL could be observed
